Experiments:
[1] = test system: β-Glucosidase derived from almond; assay: Reactivity toward various isoflavone glycosides (HPLC); assay type: biochemical; set-up: unit not given here; conditions: 55 °C, pH 4.0
In short: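 Enzymes at 0.75 AU/mL in pH 4.0 acetate buffer were reacted at 55° C with individual isoflavone glycosides (substrate stock 2 mM in methanol) in 20 mM acetate pH 4.0. Aglycone release followed at 0, 1, 3 and 6 h: ethanol-quenched, ODS HPLC with UV 260 nm, quantified against calibration curves.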

Crude diglycosidase = assay: Examination of temperature in the conversion into isoflavone aglycons by diglycosidase using soybean materials; assay type: biochemical, Penicillium multicolor IAM7153; set-up: Decomposition efficiency of glycitin family in roasted soy flour / Decomposition efficiency of daidzin family in roasted soy flour / Decomposition efficiency of genistin family in soymilk / Decomposition efficiency of daidzin family in soymilk / Decomposition efficiency of glycitin family in defatted soybean / Decomposition efficiency of daidzin family in defatted soybean: concentration or dose not given beside the values
In short: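 Soybean materials (50 mg) suspended in 20 mM acetate buffer pH 4.0 reacted with crude diglycosidase diluted to 1.88 AU/mL at 80, 65, 55, 45, 37 or 30° C. Reactions stopped with ethanol at 0, 1, 3 and 6 h; isoflavone glycosides and aglycons in supernatant detected by HPLC.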

[2] = 30° C., heat treatment of enzyme no, reaction time 0 h
[3] = 30° C., heat treatment of enzyme no, reaction time 1 h
[4] = 30° C., heat treatment of enzyme no, reaction time 3 h
[5] = 30° C., heat treatment of enzyme no, reaction time 6 h
[6] = 30° C., heat treatment of enzyme yes, reaction time 6 h
[7] = 45° C., heat treatment of enzyme no, reaction time 0 h
[8] = 45° C., heat treatment of enzyme no, reaction time 1 h
[9] = 45° C., heat treatment of enzyme no, reaction time 3 h
[10] = 45° C., heat treatment of enzyme no, reaction time 6 h
[11] = 45° C., heat treatment of enzyme yes, reaction time 6 h
[12] = 45 °C, heat treatment of enzyme: no, 0 h
[13] = 45 °C, heat treatment of enzyme: no, 1 h
[14] = 45 °C, heat treatment of enzyme: no, 3 h
[15] = 45 °C, heat treatment of enzyme: no, 6 h
[16] = 45 °C, heat treatment of enzyme: yes, 6 h
[17] = 55° C., heat treatment of enzyme no, reaction time 0 h
[18] = 55° C., heat treatment of enzyme no, reaction time 1 h
[19] = 55° C., heat treatment of enzyme no, reaction time 3 h
[20] = 55° C., heat treatment of enzyme no, reaction time 6 h
[21] = 55° C., heat treatment of enzyme yes, reaction time 6 h
[22] = 55 °C, heat treatment of enzyme: no, 0 h
[23] = 55 °C, heat treatment of enzyme: no, 1 h
[24] = 55 °C, heat treatment of enzyme: no, 3 h
[25] = 55 °C, heat treatment of enzyme: no, 6 h
[26] = 55 °C, heat treatment of enzyme: yes, 6 h
[27] = 65° C., heat treatment of enzyme no, reaction time 0 h
[28] = 65° C., heat treatment of enzyme no, reaction time 1 h
[29] = 65° C., heat treatment of enzyme no, reaction time 3 h
[30] = 65° C., heat treatment of enzyme no, reaction time 6 h
[31] = 65° C., heat treatment of enzyme yes, reaction time 6 h
[32] = 65 °C, heat treatment of enzyme: no, 0 h
[33] = 65 °C, heat treatment of enzyme: no, 1 h
[34] = 65 °C, heat treatment of enzyme: no, 3 h
[35] = 65 °C, heat treatment of enzyme: no, 6 h
[36] = 65 °C, heat treatment of enzyme: yes, 6 h
[37] = 80° C., heat treatment of enzyme no, reaction time 0 h
[38] = 80° C., heat treatment of enzyme no, reaction time 1 h
[39] = 80° C., heat treatment of enzyme no, reaction time 3 h
[40] = 80° C., heat treatment of enzyme no, reaction time 6 h
[41] = 80° C., heat treatment of enzyme yes, reaction time 6 h
[42] = 80 °C, heat treatment of enzyme: no, 0 h
[43] = 80 °C, heat treatment of enzyme: no, 1 h
[44] = 80 °C, heat treatment of enzyme: no, 3 h
[45] = 80 °C, heat treatment of enzyme: no, 6 h
[46] = 80 °C, heat treatment of enzyme: yes, 6 h

O=C(O)CC(=O)OC[C@H]1O[C@@H](Oc2ccc3c(=O)c(-c4ccc(O)cc4)coc3c2)[C@H](O)[C@@H](O)[C@@H]1O [malonyldaidzin, 6″-O-malonyldaidzin]
aglycon ([1]; Reaction time 0 h): 0
glucoside ([1]; Reaction time 0 h): 100
aglycon ([1]; Reaction time 1 h): 0
glucoside ([1]; Reaction time 1 h): 100
aglycon ([1]; Reaction time 3 h): 0
glucoside ([1]; Reaction time 3 h): 100
aglycon ([1]; Reaction time 6 h): 0
glucoside ([1]; Reaction time 6 h): 100
Decomposition efficiency of daidzin family in concentrated soybean protein (Crude diglycosidase; [2]): not detected
Decomposition efficiency of daidzin family in defatted soybean (Crude diglycosidase; [2]): 43.3%
Decomposition efficiency of daidzin family in concentrated soybean protein (Crude diglycosidase; [3]): not detected
Decomposition efficiency of daidzin family in defatted soybean (Crude diglycosidase; [3]): 46.6%
Decomposition efficiency of daidzin family in concentrated soybean protein (Crude diglycosidase; [4]): not detected
Decomposition efficiency of daidzin family in defatted soybean (Crude diglycosidase; [4]): 45.2%
Decomposition efficiency of daidzin family in concentrated soybean protein (Crude diglycosidase; [5]): not detected
Decomposition efficiency of daidzin family in defatted soybean (Crude diglycosidase; [5]): 45.1%
Decomposition efficiency of daidzin family in concentrated soybean protein (Crude diglycosidase; [6]): not detected
Decomposition efficiency of daidzin family in defatted soybean (Crude diglycosidase; [6]): 45.4%
Decomposition efficiency of daidzin family in soymilk (Crude diglycosidase; 30 °C, heat treatment of enzyme: no, 0 h): 56.8%
Decomposition efficiency of daidzin family in soymilk (Crude diglycosidase; 30 °C, heat treatment of enzyme: no, 1 h): 58.2%
Decomposition efficiency of daidzin family in soymilk (Crude diglycosidase; 30 °C, heat treatment of enzyme: no, 3 h): 52.8%
Decomposition efficiency of daidzin family in soymilk (Crude diglycosidase; 30 °C, heat treatment of enzyme: no, 6 h): 46.2%
Decomposition efficiency of daidzin family in soymilk (Crude diglycosidase; 30 °C, heat treatment of enzyme: yes, 6 h): 56.1%
Decomposition efficiency of daidzin family in roasted soy flour (Crude diglycosidase; 35 °C, heat treatment of enzyme: no, 0 h): not detected
Decomposition efficiency of daidzin family in roasted soy flour (Crude diglycosidase; 35 °C, heat treatment of enzyme: no, 1 h): not detected
Decomposition efficiency of daidzin family in roasted soy flour (Crude diglycosidase; 35 °C, heat treatment of enzyme: no, 3 h): not detected
Decomposition efficiency of daidzin family in roasted soy flour (Crude diglycosidase; 35 °C, heat treatment of enzyme: no, 6 h): not detected
Decomposition efficiency of daidzin family in roasted soy flour (Crude diglycosidase; 35 °C, heat treatment of enzyme: yes, 6 h): not detected
Decomposition efficiency of daidzin family in concentrated soybean protein (Crude diglycosidase; [7]): not detected
Decomposition efficiency of daidzin family in defatted soybean (Crude diglycosidase; [7]): 43.3%
Decomposition efficiency of daidzin family in concentrated soybean protein (Crude diglycosidase; [8]): not detected
Decomposition efficiency of daidzin family in defatted soybean (Crude diglycosidase; [8]): 45.5%
Decomposition efficiency of daidzin family in concentrated soybean protein (Crude diglycosidase; [9]): not detected
Decomposition efficiency of daidzin family in defatted soybean (Crude diglycosidase; [9]): 43.7%
Decomposition efficiency of daidzin family in concentrated soybean protein (Crude diglycosidase; [10]): not detected
Decomposition efficiency of daidzin family in defatted soybean (Crude diglycosidase; [10]): 41.7%
Decomposition efficiency of daidzin family in concentrated soybean protein (Crude diglycosidase; [11]): not detected
Decomposition efficiency of daidzin family in defatted soybean (Crude diglycosidase; [11]): 44.3%
Decomposition efficiency of daidzin family in roasted soy flour (Crude diglycosidase; [12]): not detected
Decomposition efficiency of daidzin family in soymilk (Crude diglycosidase; [12]): 57.2%
Decomposition efficiency of daidzin family in roasted soy flour (Crude diglycosidase; [13]): not detected
Decomposition efficiency of daidzin family in soymilk (Crude diglycosidase; [13]): 50.2%
Decomposition efficiency of daidzin family in roasted soy flour (Crude diglycosidase; [14]): not detected
Decomposition efficiency of daidzin family in soymilk (Crude diglycosidase; [14]): 41.1%
Decomposition efficiency of daidzin family in roasted soy flour (Crude diglycosidase; [15]): not detected
Decomposition efficiency of daidzin family in soymilk (Crude diglycosidase; [15]): 30.2%
Decomposition efficiency of daidzin family in roasted soy flour (Crude diglycosidase; [16]): not detected
Decomposition efficiency of daidzin family in soymilk (Crude diglycosidase; [16]): 55.8%
Decomposition efficiency of daidzin family in concentrated soybean protein (Crude diglycosidase; [17]): not detected
Decomposition efficiency of daidzin family in defatted soybean (Crude diglycosidase; [17]): 43.3%
Decomposition efficiency of daidzin family in concentrated soybean protein (Crude diglycosidase; [18]): not detected
Decomposition efficiency of daidzin family in defatted soybean (Crude diglycosidase; [18]): 45.0%
Decomposition efficiency of daidzin family in concentrated soybean protein (Crude diglycosidase; [19]): not detected
Decomposition efficiency of daidzin family in defatted soybean (Crude diglycosidase; [19]): 42.7%
Decomposition efficiency of daidzin family in concentrated soybean protein (Crude diglycosidase; [20]): not detected
Decomposition efficiency of daidzin family in defatted soybean (Crude diglycosidase; [20]): 40.3%
Decomposition efficiency of daidzin family in concentrated soybean protein (Crude diglycosidase; [21]): not detected
Decomposition efficiency of daidzin family in defatted soybean (Crude diglycosidase; [21]): 44.1%
Decomposition efficiency of daidzin family in roasted soy flour (Crude diglycosidase; [22]): not detected
Decomposition efficiency of daidzin family in soymilk (Crude diglycosidase; [22]): 57.3%
Decomposition efficiency of daidzin family in roasted soy flour (Crude diglycosidase; [23]): not detected
Decomposition efficiency of daidzin family in soymilk (Crude diglycosidase; [23]): 50.9%
Decomposition efficiency of daidzin family in roasted soy flour (Crude diglycosidase; [24]): not detected
Decomposition efficiency of daidzin family in soymilk (Crude diglycosidase; [24]): 41.1%
Decomposition efficiency of daidzin family in roasted soy flour (Crude diglycosidase; [25]): not detected
Decomposition efficiency of daidzin family in soymilk (Crude diglycosidase; [25]): 31.1%
Decomposition efficiency of daidzin family in roasted soy flour (Crude diglycosidase; [26]): not detected
Decomposition efficiency of daidzin family in soymilk (Crude diglycosidase; [26]): 50.8%
Decomposition efficiency of daidzin family in concentrated soybean protein (Crude diglycosidase; [27]): not detected
Decomposition efficiency of daidzin family in defatted soybean (Crude diglycosidase; [27]): 43.3%
Decomposition efficiency of daidzin family in concentrated soybean protein (Crude diglycosidase; [28]): not detected
Decomposition efficiency of daidzin family in defatted soybean (Crude diglycosidase; [28]): 44.7%
Decomposition efficiency of daidzin family in concentrated soybean protein (Crude diglycosidase; [29]): not detected
Decomposition efficiency of daidzin family in defatted soybean (Crude diglycosidase; [29]): 41.6%
Decomposition efficiency of daidzin family in concentrated soybean protein (Crude diglycosidase; [30]): not detected
Decomposition efficiency of daidzin family in defatted soybean (Crude diglycosidase; [30]): 37.3%
Decomposition efficiency of daidzin family in concentrated soybean protein (Crude diglycosidase; [31]): not detected
Decomposition efficiency of daidzin family in defatted soybean (Crude diglycosidase; [31]): 35.2%
Decomposition efficiency of daidzin family in roasted soy flour (Crude diglycosidase; [32]): not detected
Decomposition efficiency of daidzin family in soymilk (Crude diglycosidase; [32]): 56.8%
Decomposition efficiency of daidzin family in roasted soy flour (Crude diglycosidase; [33]): not detected
Decomposition efficiency of daidzin family in soymilk (Crude diglycosidase; [33]): 51.7%
Decomposition efficiency of daidzin family in roasted soy flour (Crude diglycosidase; [34]): not detected
Decomposition efficiency of daidzin family in soymilk (Crude diglycosidase; [34]): 43.9%
Decomposition efficiency of daidzin family in roasted soy flour (Crude diglycosidase; [35]): not detected
Decomposition efficiency of daidzin family in soymilk (Crude diglycosidase; [35]): 35.3%
Decomposition efficiency of daidzin family in roasted soy flour (Crude diglycosidase; [36]): not detected
Decomposition efficiency of daidzin family in soymilk (Crude diglycosidase; [36]): 42.4%
Decomposition efficiency of daidzin family in concentrated soybean protein (Crude diglycosidase; [37]): not detected
Decomposition efficiency of daidzin family in defatted soybean (Crude diglycosidase; [37]): 43.3%
Decomposition efficiency of daidzin family in concentrated soybean protein (Crude diglycosidase; [38]): not detected
Decomposition efficiency of daidzin family in defatted soybean (Crude diglycosidase; [38]): 39.8%
Decomposition efficiency of daidzin family in concentrated soybean protein (Crude diglycosidase; [39]): not detected
Decomposition efficiency of daidzin family in defatted soybean (Crude diglycosidase; [39]): 28.8%
Decomposition efficiency of daidzin family in concentrated soybean protein (Crude diglycosidase; [40]): not detected
Decomposition efficiency of daidzin family in defatted soybean (Crude diglycosidase; [40]): 17.8%
Decomposition efficiency of daidzin family in concentrated soybean protein (Crude diglycosidase; [41]): not detected
Decomposition efficiency of daidzin family in defatted soybean (Crude diglycosidase; [41]): 17.4%
Decomposition efficiency of daidzin family in roasted soy flour (Crude diglycosidase; [42]): not detected
Decomposition efficiency of daidzin family in soymilk (Crude diglycosidase; [42]): 57.2%
Decomposition efficiency of daidzin family in roasted soy flour (Crude diglycosidase; [43]): not detected
Decomposition efficiency of daidzin family in soymilk (Crude diglycosidase; [43]): 50.8%
Decomposition efficiency of daidzin family in roasted soy flour (Crude diglycosidase; [44]): not detected
Decomposition efficiency of daidzin family in soymilk (Crude diglycosidase; [44]): 36.4%
Decomposition efficiency of daidzin family in roasted soy flour (Crude diglycosidase; [45]): not detected
Decomposition efficiency of daidzin family in soymilk (Crude diglycosidase; [45]): 23.0%
Decomposition efficiency of daidzin family in roasted soy flour (Crude diglycosidase; [46]): not detected
Decomposition efficiency of daidzin family in soymilk (Crude diglycosidase; [46]): 21.8%
